O=C(N[C@H](Cc1ccccc1)C(=O)O)OCC1c2ccccc2-c2ccccc21
solubility (mole fraction)
Conditions | 283.15 K | 288.15 K | 293.15 K | 298.15 K | 303.15 K | 308.15 K | 313.15 K | 318.15 K | 323.15 K
in 2-butanone | 0.00646 | 0.00728 | 0.00803 | 0.00895 | 0.00993 | 0.0112 | 0.0133 | 0.015 | 0.017
in acetone | 0.00728 | 0.00759 | 0.00837 | 0.00931 | 0.0109 | 0.0128 | 0.0146 | 0.0164 | 0.0193
in acetonitrile | 0.000619 | 0.00066 | 0.000723 | 0.00084 | 0.000952 | 0.00117 | 0.00138 | 0.00168 | 0.00203
in ethanol | 0.00161 | 0.00173 | 0.00187 | 0.00205 | 0.0024 | 0.00278 | 0.00324 | 0.004 | 0.00515
in ethyl acetate | 0.00272 | 0.003 | 0.00342 | 0.00379 | 0.00443 | 0.00504 | 0.00571 | 0.00682 | 0.00793
in isopropanol | 0.000943 | 0.00103 | 0.00114 | 0.00126 | 0.00155 | 0.00208 | 0.00263 | 0.00311 | 0.00375
in methanol | 0.00189 | 0.00192 | 0.00199 | 0.00212 | 0.00243 | 0.00285 | 0.00331 | 0.0039 | 0.00513
in methyl acetate | 0.00327 | 0.00358 | 0.00408 | 0.00458 | 0.00537 | 0.00623 | 0.0072 | 0.00884 | 0.0105
in n-butanol | 0.00121 | 0.00136 | 0.00156 | 0.00181 | 0.0022 | 0.00261 | 0.00322 | 0.00389 | 0.00511
in n-butyl acetate | 0.00209 | 0.00227 | 0.00243 | 0.00278 | 0.00305 | 0.00352 | 0.00409 | 0.0046 | 0.00536
in n-propanol | 0.00161 | 0.00168 | 0.00178 | 0.0019 | 0.00217 | 0.00252 | 0.00316 | 0.00365 | 0.00456
in n-propyl acetate | 0.0023 | 0.00244 | 0.00275 | 0.00318 | 0.00354 | 0.00405 | 0.00467 | 0.00534 | 0.00613

Reference: BigSolDB 2.1
